Series [1] in a line: Second order rate constant was determined. The series is classed as ADME.
The nature of series [2]: Specific activity of compound was determined. The series is classed as ADME.

Experimental findings from ChEMBL document CHEMBL1132803, “L-Selenohomocysteine: one-step synthesis from L-selenomethionine and kinetic analysis as substrate for methionine synthases” (Bioorg Med Chem Lett, 2000) are described below.

For `NC(CCS)C(=O)O` (configuration not stated) [HOMOCYSTEINE], the Km in series [1] stood at 69 µM. In series [2], the Specific activity turned out to be 0.23 µM/min/mg.
